ChEMBL document CHEMBL3872214, “Synthesis and evaluation of in vivo antioxidant, in vitro antibacterial, MRSA and antifungal activity of novel substituted isatin N-(2,3,4,6-tetra-O-acetyl-β-d-glucopyranosyl)thiosemicarbazones” (Eur J Med Chem, 2016)
Values after ≈ are worked out from the molar mass of the structure shown.

Key:
Assay type in all cases: functional
Staphylococcus aureus [1] = test: Antibacterial activity against methicillin-resistant Staphylococcus aureus 198-1 after 18 to 20 hrs by two-fold microbroth dilution method
Klebsiella aerogenes = test: Antibacterial activity against Enterobacter aerogenes ATCC 13048 after 18 to 20 hrs by two-fold microbroth dilution method
Rattus norvegicus [2] = test: (§1) Antioxidant activity in CCL4-intoxicated Wistar albino rat assessed as liver cytosolic catalase activity per mg protein at 100 mg/kg, ip administered for 7 consecutive days after DL-alpha-tocopherol acetate treatment followed by CCL4 dosing measured after 24 hrs by H2O2 based assay (reference value: 220.15 +/- 11.43 U)
Staphylococcus aureus [3] = test: Antibacterial activity against Staphylococcus aureus ATCC 11632 after 18 to 20 hrs by two-fold microbroth dilution method
Escherichia coli = test: Antibacterial activity against Escherichia coli ATCC 25922 after 18 to 20 hrs by two-fold microbroth dilution method
[4] = system: Staphylococcus epidermidis; test: Antibacterial activity against Staphylococcus epidermidis ATCC 12228 after 18 to 20 hrs by two-fold microbroth dilution method
Candida albicans = test: Antifungal activity against Candida albicans ATCC 7754 after 72 hrs by agar dilution method; settings: ATCC 7754, 72 h
Pseudomonas aeruginosa = test: Antibacterial activity against Pseudomonas aeruginosa […] after 18 to 20 hrs by two-fold microbroth dilution method
Bacillus subtilis = test: Antibacterial activity against Bacillus subtilis ATCC 11774 after 18 to 20 hrs by two-fold microbroth dilution method
[5] = Antifungal activity against Saccharomyces cerevisiae SH20 after 72 hrs by agar dilution method
Staphylococcus aureus [6] = test: Antibacterial activity against methicillin-resistant Staphylococcus aureus 198-2 after 18 to 20 hrs by two-fold microbroth dilution method
Rattus norvegicus [7] = test: as §1, with “glutathione peroxidase” for “catalase”, “spectrophotometric analysis” for “assay”, “0.28” for “220.15”, “0.01” for “11.43”
Klebsiella pneumoniae = test: Antibacterial activity against Klebsiella pneumoniae ATCC 4352 after 18 to 20 hrs by two-fold microbroth dilution method
Rattus norvegicus [8] = test: as §1, with “superoxide dismutase” for “catalase”, “xanthine” for “H2O2”, “5.27” for “220.15”, “0.22” for “11.43”
Staphylococcus aureus [9] = test: Antibacterial activity against methicillin-resistant Staphylococcus aureus 198-3 after 18 to 20 hrs by two-fold microbroth dilution method
[10] = Antifungal activity against Fusarium oxysporum M42 after 72 hrs by agar dilution method
Aspergillus niger = test: Antifungal activity against Aspergillus niger 439 after 72 hrs by agar dilution method; settings: Aspergillus niger, 439, 72 h

SMILES | MIC (Staphylococcus aureus [1]) | MIC (Klebsiella aerogenes) | Activity (Rattus norvegicus [2]) | MIC (Staphylococcus aureus [3]) | MIC (Escherichia coli) | MIC [4] | MIC (Candida albicans) | MIC (Pseudomonas aeruginosa) | MIC (Bacillus subtilis) | MIC [5] | MIC (Staphylococcus aureus [6]) | Activity (Rattus norvegicus [7]) | MIC (Klebsiella pneumoniae) | Activity (Rattus norvegicus [8]) | MIC (Staphylococcus aureus [9]) | MIC [10] | MIC (Aspergillus niger)
CC(=O)OC[C@H]1O[C@@H](NC(=S)N/N=C2/C(=O)Nc3ccc(C)cc32)[C@H](OC(C)=O)[C@@H](OC(C)=O)[C@@H]1OC(C)=O | 12.5 µM (≈ 7.06 µg/mL) | 25 µM (≈ 14.1 µg/mL) | 258.47 U | 12.5 µM (≈ 7.06 µg/mL) | 25 µM (≈ 14.1 µg/mL) | 12.5 µM (≈ 7.06 µg/mL) | 100 µM (≈ 56.5 µg/mL) | 25 µM (≈ 14.1 µg/mL) | 25 µM (≈ 14.1 µg/mL) | 25 µM (≈ 14.1 µg/mL) | 12.5 µM (≈ 7.06 µg/mL) | 1.7 U | 25 µM (≈ 14.1 µg/mL) | 5.91 U | 12.5 µM (≈ 7.06 µg/mL) | 100 µM (≈ 56.5 µg/mL) | 100 µM (≈ 56.5 µg/mL)
CC(=O)OC[C@H]1O[C@@H](NC(=S)N/N=C2/C(=O)N(CCc3ccccc3)c3ccccc32)[C@H](OC(C)=O)[C@@H](OC(C)=O)[C@@H]1OC(C)=O | 200 µM (≈ 131 µg/mL) | 100 µM (≈ 65.5 µg/mL) | 260.61 U | 200 µM (≈ 131 µg/mL) | 100 µM (≈ 65.5 µg/mL) | 200 µM (≈ 131 µg/mL) | 400 µM (≈ 262 µg/mL) | 100 µM (≈ 65.5 µg/mL) | 200 µM (≈ 131 µg/mL) | 400 µM (≈ 262 µg/mL) | 200 µM (≈ 131 µg/mL) | 1.73 U | 100 µM (≈ 65.5 µg/mL) | 8.45 U | 200 µM (≈ 131 µg/mL) | 200 µM (≈ 131 µg/mL) | 200 µM (≈ 131 µg/mL)
CC(=O)OC[C@H]1O[C@@H](NC(=S)N/N=C2/C(=O)Nc3ccc(Br)cc32)[C@H](OC(C)=O)[C@@H](OC(C)=O)[C@@H]1OC(C)=O | 1.56 µM (≈ 0.982 µg/mL) | 50 µM (≈ 31.5 µg/mL) | 394.43 U | 6.25 µM (≈ 3.93 µg/mL) | 50 µM (≈ 31.5 µg/mL) | 6.25 µM (≈ 3.93 µg/mL) | 12.5 µM (≈ 7.87 µg/mL) | 50 µM (≈ 31.5 µg/mL) | 6.25 µM (≈ 3.93 µg/mL) | 12.5 µM (≈ 7.87 µg/mL) | 1.56 µM (≈ 0.982 µg/mL) | 0.32 U | 50 µM (≈ 31.5 µg/mL) | 10.47 U | 3.12 µM (≈ 1.96 µg/mL) | 12.5 µM (≈ 7.87 µg/mL) | 6.25 µM (≈ 3.93 µg/mL)
CC(=O)OC[C@H]1O[C@@H](NC(=S)N/N=C2/C(=O)Nc3ccc(Cl)cc32)[C@H](OC(C)=O)[C@@H](OC(C)=O)[C@@H]1OC(C)=O | 0.78 µM (≈ 0.456 µg/mL) | 50 µM (≈ 29.2 µg/mL) | 390.63 U | 6.25 µM (≈ 3.66 µg/mL) | 50 µM (≈ 29.2 µg/mL) | 6.25 µM (≈ 3.66 µg/mL) | 12.5 µM (≈ 7.31 µg/mL) | 50 µM (≈ 29.2 µg/mL) | 6.25 µM (≈ 3.66 µg/mL) | 12.5 µM (≈ 7.31 µg/mL) | 0.78 µM (≈ 0.456 µg/mL) | 0.31 U | 50 µM (≈ 29.2 µg/mL) | 10.2 U | 0.78 µM (≈ 0.456 µg/mL) | 12.5 µM (≈ 7.31 µg/mL) | 12.5 µM (≈ 7.31 µg/mL)
CC(=O)OC[C@H]1O[C@@H](NC(=S)N/N=C2/C(=O)Nc3c(C)cccc32)[C@H](OC(C)=O)[C@@H](OC(C)=O)[C@@H]1OC(C)=O | 12.5 µM (≈ 7.06 µg/mL) | 25 µM (≈ 14.1 µg/mL) | 250.63 U | 12.5 µM (≈ 7.06 µg/mL) | 25 µM (≈ 14.1 µg/mL) | 12.5 µM (≈ 7.06 µg/mL) | 100 µM (≈ 56.5 µg/mL) | 25 µM (≈ 14.1 µg/mL) | 25 µM (≈ 14.1 µg/mL) | 25 µM (≈ 14.1 µg/mL) | 12.5 µM (≈ 7.06 µg/mL) | 1.69 U | 25 µM (≈ 14.1 µg/mL) | 4.6 U | 12.5 µM (≈ 7.06 µg/mL) | 25 µM (≈ 14.1 µg/mL) | 100 µM (≈ 56.5 µg/mL)
